Values of other authors as cited in patent publication US20220031669A1, “Compositions for Broad Spectrum Topical Antimicrobials” (priority 2020, published 2022).

Conditions: thiol group of acetylcysteine

CC(=O)N[C@@H](CS)C(=O)O [acetylcysteine]
pKa of SH: 9.4
